What all share (assay type): in vivo
For experiment [1], the system named is Phytophthora infestans, pathogen of tomato late blight. To be noted: foliage application.
The test system of experiment [2] is Pythium ultimum, pathogen of cucumber damping-off. Put plainly: Cucumber damping-off control test, seed treatment (Test Example 2). The method, then: (§1) Control value=100(A−B)/A “Equation 1”
Generally, the control value expected for the case in which the given two kinds of active ingredient compounds are mixed and used for the treatment, the so-called control value expectation is calculated from the following Colby's calculating equation. E=X+Y−(X×Y)/100 “Equation 2”
E: Control value (%) expected for the case in which active ingredient compound A in M ppm or in M g per 100 kg of seeds and active ingredient compound B in N ppm or in N g per 100 kg of seeds are mixed and used for treatment (hereinbelow referred to as “control value expectation”) “Synergetic effect(%)”=(Actual control value)×100/(Control value expectation)
An acetone solution of the compound (1b) and an acetone solution of ethaboxam were mixed to prepare mixed liquids containing the compound (1b) and ethaboxam in predetermined concentration. These mixed liquids were adhered on the surface of cucumber (Sagamihanjiro) seeds and allowed to stand still overnight to obtain treated seeds. A plastic pot was filled with sandy soil and the treated seeds were disseminated on it. Then the seeds were covered with sandy soil which had been mixed with a bran medium on which Pythium ultimum, pathogen of cucumber damping-off, had been allowed to grow. They were irrigated and allowed to grow at 18° C. under humidity for 13 days, and thereafter control effect was checked. The incidence of disease was calculated by Equation 3 and the control value was calculated by Equation 1 based on the incidence of disease.
As a comparison, acetone solutions containing the compound (1b) in the predetermined concentration and an acetone solution containing ethaboxam in the predetermined concentration were prepared and subjected to similar tests. Incidence of disease=(Number of no emerging seedlings and number of seedlings in which development of disease was observed)×100/(Number of total disseminated seeds) “Equation 3”

Experiment [3] concerns Plasmopara viticola, pathogen of grape downy mildew. Put plainly: Grape downy mildew control test, foliage application (Test Example 3).
From the text: as §1
A plastic pot was filled with sandy soil, and grape (Berry A) was then disseminated. The grape was allowed to grow in a green house for 40 days. A wettable powder of the compound (1b) and a wettable powder of ethaboxam were respectively diluted with water and then tank-mixed so as to prepare tank-mixed liquids containing compound (1b) and ethaboxam in predetermined concentration. The tank-mixed liquids were subjected to foliage application such that they could be sufficiently adhered to the underside of the leaves of the aforementioned grape plants. After the foliage application, the plants were air-dried. Thereafter, an aqueous suspension of sporangia of Plasmopara viticola, pathogen of grape downy mildew, was sprayed on the grape plants to inoculate the pathogen. They were placed at 23° C. under high humidity for one day after the inoculation, cultured in a greenhouse at 23° C. for 5 days. The grape plants were thereafter placed at 23° C. under high humidity for one day and infected area was checked.
As a comparison, the respective wettable powders described above were diluted with water in predetermined concentration so as to prepare compound (1b) liquids and a ethaboxam liquid respectively and they were subjected to similar disease control test. In order to calculate the control value, the incidence of disease was also determined in the case in which the plants had not been treated with the agent. The relative incidence of disease of each treated area was determined as the incidence of disease of the area assuming that the incidence of disease of untreated area was represented as 100, and the control value was calculated by Equation 1 based on the incidence of disease thus determined.

Read-outs that look alike come from different tables or passages of the source.

`CCNc1nc(CC)c(C(=O)NC(C#N)c2cccs2)s1` (stereo not shown) [Ethaboxam, ethaboxam, reference compound]: the Actual control value in experiment [1] (ethaboxam 0.4 ppm alone) was found to be 10%; in experiment [2] (ethaboxam 10 g ai/100 kg-seed alone), 73%; in experiment [3] (ethaboxam 0.4 ppm alone), 1%; in experiment [3] (ethaboxam 2 ppm alone) it was 35%.
As to `CNC(=O)C(OC)c1ccccc1COc1cc(C)ccc1C` (racemic) [Compound (1b)], the Actual control value in experiment [1] (compound (1b) 10 ppm alone) stood at 5%; in experiment [1] (compound (1b) 50 ppm alone), 25%; in experiment [2] (compound (1b) 5 g ai/100 kg-seed alone), 6.7%; in experiment [2] (compound (1b) 10 g ai/100 kg-seed alone) it was 6.7%; in experiment [2] (compound (1b) 20 g ai/100 kg-seed alone), 13%; in experiment [3] (compound (1b) 2 ppm alone), 2%.

The record behind these values is patent US8609585B2 (priority 2008, dated 2013).
